The values that follow come from US20170183644A1, “DRUG COCKTAIL ANALYSES USING MICROSCALE VORTEX ASSISTED ELECTROPORATION” (President and Fellows of Harvard College, priority 2014, published 2017).

The subject of assay [1] is MDA-MB-231 cells. Kind of assay: Conventional well-plate drug screening assay, CellTiter-Glo cell viability. Conditions: for effect on cell viability as a single agent: conventional assay. The assay is classed as cell-based. As for the experimental part:
These cells were incubated in a humidified incubator at 37° C. with 0% CO2 environment. Cells were harvested for experiments 2 days after the seeding by treating them with 0.25% trypsin-EDTA for 2 minutes. […] Conventional drug screening assays utilizing well-plates were conducted in parallel to evaluate the performance of the proposed microfluidic system. […] For control experiments using the conventional method, the concentrations of drugs were determined such that cells would be exposed in a well plate for 24 hours to the drug amount that is identical to those used for the microfluidic counterpart. […] The CellTiter-Glo Luminescent Cell Viability Assay (Promega, USA) was used to determine the cytotoxicity of tested drugs. First, the correlation between the luminescent intensity and the number of viable cells for the tested cell line was established from luminescence measurements from 96 well plates containing known-quantity of viable cells (LuMate, Model 4400) (see ESI FIG. 2 for calibration curve). For cytotoxicity studies on cells treated with the drugs, all cells present in the well, regardless their viability, were manually counted prior to adding the CellTiter-Glo reagent to the well. The number of viable cells was determined by identifying the corresponding number of viable cells represented by the measured luminescent intensity from the calibration curve. Viability was determined by taking the ratio between the number of viable cells and the total number of treated cells presented in the well.
On the technique in general: In ATP-based viability assays light output follows the ATP content of the culture.

Assay [2] concerns MDA-MB-231 cells. Kind of assay: Microfluidic vortex-assisted electroporation drug screening assay, CellTiter-Glo cell viability. The assay is classed as cell-based. The note with it: for IC50: microfluidic electroporation, single agent, read-out: Proposed IC50; for effect on cell viability as a single agent: microfluidic assay. Here is the method: These cells were incubated in a humidified incubator at 37° C. with […] environment. Cells were harvested for experiments 2 days after the seeding by treating them with 0.25% trypsin-EDTA for 2 minutes. The cells were pelleted by centrifuging for 5 minutes at 200×g and resuspended in the growth media to have a final concentration of 5×10^5 cells/mL. The system utilized the pneumatic flow control unit and the electrical equipment that we previously developed. Their detailed specifications and visualized operational protocols (Yun et al., 2013; Vickers et al., 2014) can be found elsewhere. In brief, the flow control unit independently and promptly pressurizes individual solution vials for rapid solution exchanges through the microfluidic system while the electrical equipment generates high-voltage short pulses across the electroporation chambers on demand. […] Solution vials, individually containing cells, drugs and a growth media for flushing, were mounted into the pneumatic flow control unit, and PEEK tubes from each vial inserted into designated inlet ports in the microfluidic electroporator. The system was flushed with the growth media at the operating pressure of 40 psi (equivalent to a flow rate of 400 μL/minute) for 90 seconds prior to the target cell injection step in order to prime the flow speed required for cell trapping (Hur et al., 2011). Once the desired size and number distribution of trapped cells were attained in each cell trapping vortex, not-trapped cells were removed from the device by switching the active solution port from the cell solution to the flush solution. […] The magnitude, V, the width, Kt, and the frequency of applied electrical pulses were monitored in real-time using an oscilloscope (Agilent, USA). Drug delivery doses were varied by exposing trapped cells to a single drug for incubation durations of 30, 60 and 120 seconds in continuous flow. For dual drug delivery tests, trapped cells were sequentially incubated in individual drugs with various dosage combinations by systematically changing treatment duration ratios of two drugs (e.g., 30:30 seconds, 30:60 seconds or 30:120 seconds). Upon completion of the drug delivery process, treated cells were suspended in the growth media and released from the device for downstream analysis by lowering the operating pressure to 30 psi. Collected cells were seeded in 96 well plates and cultured for 24 to 48 hours prior to the cytotoxicity assays. […] Conventional drug screening assays utilizing well-plates were conducted in parallel to evaluate the performance of the proposed microfluidic system. […] For control experiments using the conventional method, the concentrations of drugs were determined such that cells would be exposed in a well plate for 24 hours to the drug amount that is identical to those used for the microfluidic counterpart. […] The CellTiter-Glo Luminescent Cell Viability Assay (Promega, USA) was used to determine the cytotoxicity of tested drugs. First, the correlation between the luminescent intensity and the number of viable cells for the tested cell line was established from luminescence measurements from 96 well plates containing known-quantity of viable cells (LuMate, Model 4400) (see ESI FIG. 2 for calibration curve). For cytotoxicity studies on cells treated with the drugs, all cells present in the well, regardless their viability, were manually counted prior to adding the CellTiter-Glo reagent to the well. The number of viable cells was determined by identifying the corresponding number of viable cells represented by the measured luminescent intensity from the calibration curve. Viability was determined by taking the ratio between the number of viable cells and the total number of treated cells presented in the well.

In assay [3] the test system is MC38 colon cancer cell line. Conditions: MC38 colon cancer cell line (Kuriyoma et al., 2000); read-out: Literature IC50; cited from earlier work.
The next assay relates to Ca-27 squamous carcinoma. The note with it: Ca-27 squamous carcinoma (Wang et al., 2012); read-out: Literature IC50; cited from earlier work.
A further assay concerns MDA-MB-231. Conditions: MDA-MB-231 (Akbos et al., 2005); read-out: Literature IC50; cited from earlier work.
Where [4] appears, read: Homo sapiens, MDA-MB-231, well plate, single agent, read-out: Conventional IC50.

For orientation: IC50 means the concentration at which inhibition is half-maximal.

In the case of bleomycin, the half-maximal inhibitory concentration (IC50) in the assay on MDA-MB-231 cells [1] (FIG. 2 legend, values match conventional assay, read-out: IC50 (FIG. 2 legend)) is 30 µM; in the assay with MDA-MB-231 cells [1] (well plate, single agent, read-out: Conventional IC50), 20 µM; with MDA-MB-231 cells [2], 0.12 µM; in assay [3], 12 µM.
In the case of `Nc1ccn([C@@H]2O[C@H](CO)[C@@H](O)C2(F)F)c(=O)n1` [Gemcitabine, gemcitabine], the IC50 was 2000 µM in the assay on MDA-MB-231 cells [1] (Homo sapiens, MDA-MB-231, FIG. 2 legend, value matches conventional assay, read-out: IC50 (FIG. 2 legend)); 2000 µM in the assay with MDA-MB-231 cells [1] (setting [4]); 302 µM with MDA-MB-231 cells [2] (Homo sapiens, MDA-MB-231); 340 µM in the assay with Ca-27 squamous carcinoma.
Take `CC[C@@]1(O)C(=O)OCc2c1cc1n(c2=O)Cc2cc3c(CN(C)C)c(O)ccc3nc2-1` [Topotecan, topotecan]: the IC50 was 2 µM in the assay on MDA-MB-231 cells [1] (Homo sapiens, MDA-MB-231, FIG. 2 legend, values match conventional assay, read-out: IC50 (FIG. 2 legend)); 2 µM in the assay with MDA-MB-231 cells [1] (setting [4]); 1.2 µM in the assay on MDA-MB-231 cells [2] (Homo sapiens, MDA-MB-231); 1.1 µM in the assay on MDA-MB-231. Besides, the “effect on cell viability as a single agent” value with MDA-MB-231 cells [1] (single agent) and with MDA-MB-231 cells [2] was “dose-dependently reduced survival” in each case.
In the case of `O=c1c(O)c(-c2ccc(O)c(O)c2)oc2cc(O)cc(O)c12` [quercetin], the “effect on cell viability as a single agent” value is “negligible and dose independent” in the assay on MDA-MB-231 cells [1] (single agent); “negligible cytotoxic effect” with MDA-MB-231 cells [1] (single agent, listed as Quercetin); “negligible and dose independent” with MDA-MB-231 cells [2]; “negligible cytotoxic effect” in the assay with MDA-MB-231 cells [2] (listed as Quercetin).
